Holding throughout (format): functional
Experiment [1] relates to Helicoverpa assulta. The experiment in a line: Resistance factor, ratio of LD50 for sixth-instar larvae of Helicoverpa assulta HB2 to LD50 for sixth-instar larvae of Helicoverpa assulta at 1.8 to 183360 mg/l.
The subject of experiment [2] is Helicoverpa assulta. Kind of experiment: Insecticidal activity against sixth-instar larvae of Helicoverpa assulta FJ2 at 1.8 to 183360 mg/l after 48 hr by chi-squared analysis.
Experiment [3] concerns Helicoverpa assulta. Kind of experiment: Resistance factor, ratio of LD50 for sixth-instar larvae of Helicoverpa assulta YN6 to LD50 for sixth-instar larvae of Helicoverpa assulta at 1.8 to 183360 mg/l.
For experiment [4], the system named is Helicoverpa assulta. Kind of experiment: Resistance factor, ratio of LD50 for sixth-instar larvae of Helicoverpa assulta HB2 to LD50 for sixth-instar larvae of Helicoverpa assulta at 21 to 3390 mg/l.
In experiment [5] the test system is Helicoverpa assulta. The experiment in a line: Insecticidal activity against sixth-instar larvae of Helicoverpa assulta YN5 at 21 to 3390 mg/l after 48 hr by chi-squared analysis.
Experiment [6] has as its system Helicoverpa assulta. Kind of experiment: Resistance factor, ratio of LD50 for sixth-instar larvae of Helicoverpa assulta AH3 to LD50 for sixth-instar larvae of Helicoverpa assulta at 21 to 3390 mg/l.
Experiment [7] relates to Helicoverpa assulta. The experiment in a line: Insecticidal activity against sixth-instar larvae of Helicoverpa assulta GZ2 at 21 to 3390 mg/l after 48 hr by chi-squared analysis.
The test system of experiment [8] is Helicoverpa assulta. The experiment in a line: Resistance factor, ratio of LD50 for sixth-instar larvae of Helicoverpa assulta YN2 to LD50 for sixth-instar larvae of Helicoverpa assulta at 21 to 3390 mg/l.
Experiment [9] has as its system Helicoverpa assulta. The experiment in a line: Resistance factor, ratio of LD50 for sixth-instar larvae of Helicoverpa assulta SD2 to LD50 for sixth-instar larvae of Helicoverpa assulta at 21 to 3390 mg/l.
Experiment [10] has as its system Helicoverpa assulta. The experiment in a line: Insecticidal activity against sixth-instar larvae of Helicoverpa assulta YN3 at 21 to 3390 mg/l after 48 hr by chi-squared analysis.
Experiment [11] concerns Helicoverpa assulta. The experiment in a line: Resistance factor, ratio of LD50 for sixth-instar larvae of Helicoverpa assulta YN4 to LD50 for sixth-instar larvae of Helicoverpa assulta at 21 to 3390 mg/l.
The subject of experiment [12] is Helicoverpa assulta. Kind of experiment: Insecticidal activity against sixth-instar larvae of Helicoverpa assulta HB2 at 39 to 12630 mg/l after 48 hr by chi-squared analysis.
In experiment [13] the test system is Helicoverpa assulta. The experiment in a line: Resistance factor, ratio of LD50 for sixth-instar larvae of Helicoverpa assulta YN1 to LD50 for sixth-instar larvae of Helicoverpa assulta at 39 to 12630 mg/l.
The test system of experiment [14] is Helicoverpa assulta. Kind of experiment: Insecticidal activity against sixth-instar larvae of Helicoverpa assulta at 39 to 12630 mg/l after 48 hr by chi-squared analysis.

These results are taken from ChEMBL document CHEMBL3046781, “Resistance of Helicoverpa assulta (Guenée) (Lepidoptera: Noctuidae) to fenvalerate, phoxim and methomyl in China” (2009).

For `CC(C)C(C(=O)OC(C#N)c1cccc(Oc2ccccc2)c1)c1ccc(Cl)cc1` (stereo not given) [FENVALERATE], the figures for the Ratio in experiment [1] and in [3] were 28.5 and 4115, respectively. For the same compound, in [2], the LD90 amounted to 4.91 µg/g. Further, in experiment [2] (Helicoverpa assulta, FJ2, 48 h), the LD50 (usually the dose at which mortality reaches 50%) was 2.08 mg/kg.

For the compound `CNC(=O)ON=C(C)SC` [METHOMYL], the Ratio in [4] was determined as 10.9; in experiment [6], 12.7; in [8], 18.4; in [9], 6.17; in experiment [11] it was 11.5. Further, the LD90 in experiment [5] was 37.7 µg/g; in experiment [7] it was 52.6 µg/g; in experiment [10], 78.5 µg/g. For the same compound, the LD50 in experiment [5] (Helicoverpa assulta, YN5, 48 h) came out at 14.3 mg/kg; in experiment [7] (Helicoverpa assulta, GZ2, 48 h) it was 20.1 mg/kg; in [10] (Helicoverpa assulta, YN3, 48 h), 33.3 mg/kg.

For the compound `CCOP(=S)(OCC)O/N=C(\C#N)c1ccccc1` [PHOXIM], the values for the LD90 in experiment [12] and in experiment [14] were 37.4 µg/g and 5.54 µg/g, respectively. Besides, the LD50 in [12] (Helicoverpa assulta, HB2, 48 h) was found to be 11.8 mg/kg; in [14] (Helicoverpa assulta, 48 h), 2.34 mg/kg. For the same compound, the Ratio in experiment [13] is listed as 8.72.
